Results: patent US20110212972A1, “Compositions and Methods for Treating Female Sexual Dysfunction” (Pfizer Inc, priority 2000, published 2011)

Columns and labels:
MCF-7 cells = test: Inhibition of in vitro human breast tumor cell growth, ER-positive MCF-7; format: cell-based; settings: MCF-7 (ER-positive), 6 days incubation, direct cell counts
Procedure: (§1) The in vitro antiproliferative effects of (−)-cis-6-phenyl-5-[4-(2-pyrrolidin-1-yl-ethoxy)-phenyl]-5,6,7,8-tetrahydro-naphthalene-2-ol (PPTN) were tested using two types of human breast cancer cell lines: first, MCF-7 cells, which contain ER as well as progesterone receptors (PgR), and second, MDA-MB-231 cells, which lack ER and PgR, and enable the determination of an effect that is independent of the ER mechanism. The effect of PPTN on the growth of these different cell lines was determined by incubation of the cells with various compound concentrations for 6 days.
(§2) The antiproliferative effects were then determined by direct cell counts.

MDA-MB-231 cells = test: Inhibition of in vitro human breast tumor cell growth, ER-negative MDA-MB-231; format: cell-based; settings: MDA-MB-231 (ER-negative), 6 days incubation, direct cell counts
Procedure: as §1, §2

IC50 for growth inhibition (MCF-7 cells): 3 to 5×10^−11 M
SMILES: Oc1ccc2c(c1)CC[C@H](c1ccccc1)[C@@H]2c1ccc(OCCN2CCCC2)cc1 [PPTN, (−)-cis-6-phenyl-5-[4-(2-pyrrolidin-1-yl-ethoxy)-phenyl]-5,6,7,8-tetrahydro-naphthalene-2-ol]
effect on cell growth (MCF-7 cells): inhibited the growth
effect on cell proliferation (MDA-MB-231 cells): did not inhibit cell proliferation
